Results from patent publication US7407775B2, “Method for identifying Listeria monocytogenes and culture medium” (Biomerieux S.A., priority 2000, dated 2008).

Tests used:
Test in all cases: Experiment 2: octanoate esterase substrates with different Indoxyl-based chromogenic markers
Format in all cases: cell-based
Conditions in all cases: 37° C., substrate 250 mg/l
[1] = tested on: Listeria monocytogenes ATCC 19115; set-up: key to I (intensity of the color): —: the symbol “-” corresponds to the absence of color or intensity; 0 corresponds to no activity; 0.1 corresponds to a trace of color; 0.5 corresponds to very pale coloration; 1 corresponds to clear but low-intensity coloration; 1.5 corresponds to a degree of coloration intermediate between scores 1 and 2; 2 corresponds to clear coloration of moderate intensity; 2.5 corresponds to a degree of coloration intermediate between scores 2 and 3; 3 corresponds to intense coloration; 3.5 corresponds to a degree of coloration intermediate between scores 3 and 4; 4 corresponds to very intense coloration
Procedure: (§1) In Table 1 above, as in the following Tables, C represents the color of the colonies after incubation, I represents the intensity of the color, and the symbol “-” corresponds to the absence of color or intensity; finally, IT defines the incubation time. It should be noted that the intensity of the color is scored on an arbitrary scale but one which is consistent for all the biological specimens and media tested. This scale is valid for this experiment as well as all those that follow. It can be defined in the following way: • 0 corresponds to no activity, • 0.1 corresponds to a trace of color, • 0.5 corresponds to very pale coloration, • 1 corresponds to clear but low-intensity coloration, • 1.5 corresponds to a degree of coloration intermediate between scores 1 and 2, • 2 corresponds to clear coloration of moderate intensity, • 2.5 corresponds to a degree of coloration intermediate between scores 2 and 3, • 3 corresponds to intense coloration, • 3.5 corresponds to a degree of coloration intermediate between scores 3 and 4, • 4 corresponds to very intense coloration.
(§2) A stock solution of each substrate at a concentration of 40 g/l was made up in a mixture of 40% Dimethylsulfoxide and 60% Tween 20. An appropriate volume was added to four Columbia-type media while cooling to give a final substrate concentration of 250 mg/l. These dishes were divided into three areas and then each area was inoculated with a suspension (density=0.5 McFarland) of microorganisms taken from either the Applicant's own collection or the ATCC. The dishes were incubated for 48 hours at 37° C. The colonies which grew were examined by eye after 24 and 48 hours of incubation. Both the color and the intensity of the color of the colonies were recorded.

[2] = tested on: Listeria monocytogenes ATCC 19117; set-up: key to I (intensity of the color): —: the symbol “-” corresponds to the absence of color or intensity; 0 corresponds to no activity; 0.1 corresponds to a trace of color; 0.5 corresponds to very pale coloration; 1 corresponds to clear but low-intensity coloration; 1.5 corresponds to a degree of coloration intermediate between scores 1 and 2; 2 corresponds to clear coloration of moderate intensity; 2.5 corresponds to a degree of coloration intermediate between scores 2 and 3; 3 corresponds to intense coloration; 3.5 corresponds to a degree of coloration intermediate between scores 3 and 4; 4 corresponds to very intense coloration
Procedure: as §1, §2

Listeria ivanovii 025 = tested on: Listeria ivanovii 025; set-up: key: —: the symbol “-” corresponds to the absence of color or intensity; 0 corresponds to no activity; 0.1 corresponds to a trace of color; 0.5 corresponds to very pale coloration; 1 corresponds to clear but low-intensity coloration; 1.5 corresponds to a degree of coloration intermediate between scores 1 and 2; 2 corresponds to clear coloration of moderate intensity; 2.5 corresponds to a degree of coloration intermediate between scores 2 and 3; 3 corresponds to intense coloration; 3.5 corresponds to a degree of coloration intermediate between scores 3 and 4; 4 corresponds to very intense coloration
Procedure: as §1, §2

Listeria innocua 166 = tested on: Listeria innocua 166; set-up: key: —: the symbol “-” corresponds to the absence of color or intensity; 0 corresponds to no activity; 0.1 corresponds to a trace of color; 0.5 corresponds to very pale coloration; 1 corresponds to clear but low-intensity coloration; 1.5 corresponds to a degree of coloration intermediate between scores 1 and 2; 2 corresponds to clear coloration of moderate intensity; 2.5 corresponds to a degree of coloration intermediate between scores 2 and 3; 3 corresponds to intense coloration; 3.5 corresponds to a degree of coloration intermediate between scores 3 and 4; 4 corresponds to very intense coloration
Procedure: as §1, §2

Listeria ivanovii 018 = tested on: Listeria ivanovii 018; set-up: key: —: the symbol “-” corresponds to the absence of color or intensity; 0 corresponds to no activity; 0.1 corresponds to a trace of color; 0.5 corresponds to very pale coloration; 1 corresponds to clear but low-intensity coloration; 1.5 corresponds to a degree of coloration intermediate between scores 1 and 2; 2 corresponds to clear coloration of moderate intensity; 2.5 corresponds to a degree of coloration intermediate between scores 2 and 3; 3 corresponds to intense coloration; 3.5 corresponds to a degree of coloration intermediate between scores 3 and 4; 4 corresponds to very intense coloration
Procedure: as §1, §2

Listeria innocua 171 = tested on: Listeria innocua 171; set-up: key: —: the symbol “-” corresponds to the absence of color or intensity; 0 corresponds to no activity; 0.1 corresponds to a trace of color; 0.5 corresponds to very pale coloration; 1 corresponds to clear but low-intensity coloration; 1.5 corresponds to a degree of coloration intermediate between scores 1 and 2; 2 corresponds to clear coloration of moderate intensity; 2.5 corresponds to a degree of coloration intermediate between scores 2 and 3; 3 corresponds to intense coloration; 3.5 corresponds to a degree of coloration intermediate between scores 3 and 4; 4 corresponds to very intense coloration
Procedure: as §1, §2

[3] = tested on: Listeria innocua ATCC 33090; set-up: key: —: the symbol “-” corresponds to the absence of color or intensity; 0 corresponds to no activity; 0.1 corresponds to a trace of color; 0.5 corresponds to very pale coloration; 1 corresponds to clear but low-intensity coloration; 1.5 corresponds to a degree of coloration intermediate between scores 1 and 2; 2 corresponds to clear coloration of moderate intensity; 2.5 corresponds to a degree of coloration intermediate between scores 2 and 3; 3 corresponds to intense coloration; 3.5 corresponds to a degree of coloration intermediate between scores 3 and 4; 4 corresponds to very intense coloration
Procedure: as §1, §2

Compound	C (color of the colonies) ([1]; IT 24 h)	I (intensity of the color) ([1]; IT 24 h)	C (color of the colonies) ([1]; IT 48 h)	I (intensity of the color) ([1]; IT 48 h)	C (color of the colonies) ([2]; IT 24 h)	I (intensity of the color) ([2]; IT 24 h)	C (color of the colonies) ([2]; IT 48 h)	I (intensity of the color) ([2]; IT 48 h)	C (color of the colonies) (Listeria ivanovii 025; IT 24 h)	I (intensity of the color) (Listeria ivanovii 025; IT 24 h)	C (color of the colonies) (Listeria ivanovii 025; IT 48 h)	I (intensity of the color) (Listeria ivanovii 025; IT 48 h)	C (color of the colonies) (Listeria innocua 166; IT 24 h)	I (intensity of the color) (Listeria innocua 166; IT 24 h)	C (color of the colonies) (Listeria innocua 166; IT 48 h)	I (intensity of the color) (Listeria innocua 166; IT 48 h)	C (color of the colonies) (Listeria ivanovii 018; IT 24 h)	I (intensity of the color) (Listeria ivanovii 018; IT 24 h)	C (color of the colonies) (Listeria ivanovii 018; IT 48 h)	I (intensity of the color) (Listeria ivanovii 018; IT 48 h)	further results
CCCCCCCC(=O)Oc1c[nH]c2ccc(Br)c(Cl)c12 [X-C8, 5-Bromo-4-chloro-3-indolyl octanoate]	turquoise	2.5	turquoise	3	turquoise	2	turquoise	3	—	—	—	—	turquoise	0.3	turquoise	0.5	—	—	—	—	I (intensity of the color) (Listeria innocua 171; IT 24 h): —; C (color of the colonies) (Listeria innocua 171; IT 48 h): turquoise; I (intensity of the color) (Listeria innocua 171; IT 48 h): 0.3; C (color of the colonies) ([3]; IT 24 h): turquoise; I (intensity of the color) ([3]; IT 24 h): 0.3; C (color of the colonies) ([3]; IT 48 h): turquoise; I (intensity of the color) ([3]; IT 48 h): 0.5
CCCCCCCC(=O)Oc1c[nH]c2cc(Cl)ccc12 [Pink-C8, 6-Chloro-3-indolyl octanoate]	pink	0.5	pink	1	pink	0.5	pink	1	—	—	—	—	—	—	pink	0.3	—	—	—	—	C (color of the colonies) (Listeria innocua 171; IT 24 h): —; I (intensity of the color) (Listeria innocua 171; IT 24 h): —; C (color of the colonies) (Listeria innocua 171; IT 48 h): pink; I (intensity of the color) (Listeria innocua 171; IT 48 h): 0.3; C (color of the colonies) ([3]; IT 24 h): —; I (intensity of the color) ([3]; IT 24 h): —; C (color of the colonies) ([3]; IT 48 h): pink; I (intensity of the color) ([3]; IT 48 h): 0.5
CCCCCCCC(=O)Oc1c[nH]c2ccc(Br)cc12 [Blue-C8, 5-Bromo-3-indolyl octanoate]	gray	1	gray	2	gray	1	gray	2	—	—	—	—	gray	0.3	gray	1	—	—	—	—	C (color of the colonies) (Listeria innocua 171; IT 24 h): —; I (intensity of the color) (Listeria innocua 171; IT 24 h): —; C (color of the colonies) (Listeria innocua 171; IT 48 h): gray; I (intensity of the color) (Listeria innocua 171; IT 48 h): 0.3; C (color of the colonies) ([3]; IT 24 h): gray; I (intensity of the color) ([3]; IT 24 h): 0.3; C (color of the colonies) ([3]; IT 48 h): gray; I (intensity of the color) ([3]; IT 48 h): 0.5
CCCCCCCC(=O)Oc1c[nH]c2cc(Cl)c(Br)cc12 [Magenta-C8, 5-Bromo-6-chloro-3-indolyl octanoate]	purple	2	purple	3	purple	1.5	purple	3.5	—	—	—	—	purple	2	purple	3	—	—	—	—	C (color of the colonies) (Listeria innocua 171; IT 24 h): purple; I (intensity of the color) (Listeria innocua 171; IT 24 h): 0.5; C (color of the colonies) (Listeria innocua 171; IT 48 h): purple; I (intensity of the color) (Listeria innocua 171; IT 48 h): 3; C (color of the colonies) ([3]; IT 24 h): purple; I (intensity of the color) ([3]; IT 24 h): 1; C (color of the colonies) ([3]; IT 48 h): purple; I (intensity of the color) ([3]; IT 48 h): 2
